pEC50, pIC50: −log10 of the molar value.
Legend:
PD-1/PD-L1 interaction = biological target: T1, PD-1/PD-L1 interaction (Homo sapiens, UniProt Q9NZQ7); test: PD-1/PD-L1 NFAT reporter co-culture assay; format: cell-based; conditions: Jurkat PD-1 NFAT-luciferase cells co-cultured with aAPC-PD-L1 CHO cells, 6 hrs at 37° C.; read-out: EC50 NFAT Luciferase
T1 construct: expressed in transfected cells; host or cells: CHO cells (aAPC-PD-L1) co-cultured with Jurkat cells overexpressing PD-1 and an NFAT-luciferase reporter
T1 sequence (Q9NZQ7 19-290): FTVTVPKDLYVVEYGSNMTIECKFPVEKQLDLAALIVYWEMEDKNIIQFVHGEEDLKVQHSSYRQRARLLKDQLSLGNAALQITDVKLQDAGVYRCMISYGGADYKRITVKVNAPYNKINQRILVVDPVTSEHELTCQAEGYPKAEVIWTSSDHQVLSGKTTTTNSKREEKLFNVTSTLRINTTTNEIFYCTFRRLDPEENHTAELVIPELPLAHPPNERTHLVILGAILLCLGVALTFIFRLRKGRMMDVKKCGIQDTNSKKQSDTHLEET
Method in brief: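 Jurkat cells overexpressing PD-1 with NFAT-driven luciferase were mixed with compound in RPMI 1640/2% FBS and seeded onto overnight-plated CHO aAPC-PD-L1 cells expressing surface anti-CD3 and PD-L1. Co-culture ran 6 h at 37 °C; luminescence read with ONE-Glo; EC50 from four-parameter fit.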

PD-1/PD-L1 = PD-1/PD-L1 (Homo sapiens, UniProt Q9NZQ7); test: PD-1/PD-L1 biochemical protein-protein interaction assay (ALPHA); format: binding; conditions: 0.3 nM His tagged PD-L1, 2.5 nM biotinylated Fc-PD-1, 60 minutes at 25° C., read-out: IC50 PD-L1-PD-1 Alpha IC50-mono PD-L1-fcP-D1
Sequence of PD-1/PD-L1 (Q9NZQ7 19-238 limits assumed): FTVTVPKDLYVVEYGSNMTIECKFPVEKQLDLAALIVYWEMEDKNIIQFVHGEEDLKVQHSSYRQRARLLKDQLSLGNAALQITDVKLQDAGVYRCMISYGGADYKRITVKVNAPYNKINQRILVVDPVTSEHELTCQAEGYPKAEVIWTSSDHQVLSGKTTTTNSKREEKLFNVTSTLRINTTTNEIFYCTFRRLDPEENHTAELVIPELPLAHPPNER
Method in brief: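 His-PD-L1 ECD 0.3 nM + biotin-Fc-PD-1 2.5 nM (final), 25 mM Hepes pH 7.4, 150 mM NaCl, 3.4 mM EDTA; 60 min, 25° C; anti-His acceptor/streptavidin donor ALPHA beads; decreased signal = blocked binding; 4-parameter IC50.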

Compound	pEC50 (PD-1/PD-L1 interaction)	pIC50 (PD-1/PD-L1)
CCOC(=O)CNCc1cc(Cl)c(O[C@H]2CCc3c(-c4cccc5c4CC[C@@H]5Oc4nc(OC)c(CNCC(=O)OCC)cc4Cl)cccc32)nc1OC [Example 287, Diethyl 2,2′-((((((1S,1′S)-2,2′,3,3′-tetrahydro-1H,1′H-[4,4′-biindene]-1,1′-diyl)bis(oxy))bis(5-chloro-2-methoxypyridine-6,3-diyl))bis(methylene))bis(azanediyl))diacetate]	6.02	6.34
CC(CO)(NCc1cc(Cl)c(O[C@H]2CCc3c(-c4cccc5c4CC[C@@H]5Oc4nc(OCc5cncc(S(C)(=O)=O)c5)c(CNC(C)(CO)C(=O)O)cc4Cl)cccc32)nc1OCc1cncc(S(C)(=O)=O)c1)C(=O)O (some centres unmarked) [Example 298]	7.68	10.29
Cc1c(COc2cc(OCc3cncc(C#N)c3)c(CNC[C@@H](O)CC(=O)O)cc2Cl)cccc1-c1cccc(-c2ccc(OCCNC[C@@H](O)CC(=O)O)c(F)c2)c1C [Example 314]	6.73	10.19
Cc1c(COc2cc(OCc3cncc(C#N)c3)c(CNC[C@@H](O)CC(=O)O)cc2Cl)cccc1-c1cccc(-c2ccc(OCCNC[C@@H](O)CC(=O)O)cc2Cl)c1C [Example 315, (S)-4-((4-((4″-(2-(((S)-3-carboxy-2-hydroxypropyl)amino)ethoxy)-2″-chloro-2,2′-dimethyl-[1,1′:3′,1″-terphenyl]-3-yl)methoxy)-5-chloro-2-((5-cyanopyridin-3-yl)methoxy)benzyl)amino)-3-hydroxybutanoic acid]	5.90	9.62
Cc1c(-c2ccc(OCCNC[C@@H](O)CC(=O)O)cc2)cccc1-c1cccc2c1CC[C@@H]2Oc1nc(OCCCC#N)c(CNC[C@@H](O)CC(=O)O)cc1Br [Example 327, (S)-4-((2-((3′-((S)-1-((3-bromo-5-((((S)-3-carboxy-2-hydroxypropyl)amino)methyl)-6-(3-cyanopropoxy)pyridin-2-yl)oxy)-2,3-dihydro-1H-inden-4-yl)-2′-methyl-[1,1′-biphenyl]-4-yl)oxy)ethyl)amino)-3-hydroxybutanoic acid]	6.94	10.29
Cc1c(COc2cc(OCc3cncc(C#N)c3)c(CNC[C@@H](O)CC(=O)O)cc2Cl)cccc1-c1cccc(-c2ccc3ncnc(NCCO)c3c2)c1C [Example 337, (S)-4-((5-chloro-2-((5-cyanopyridin-3-yl)methoxy)-4-((3′-(4-((2-hydroxyethyl)amino)quinazolin-6-yl)-2,2′-dimethyl-[1,1′-biphenyl]-3-yl)methoxy)benzyl)amino)-3-hydroxybutanoic acid]	5.72	9.54
Cc1c(COc2cc(OCc3cncc(C#N)c3)c(CNC[C@@H](O)CC(=O)O)cc2Cl)cccc1-c1cccc(-c2ccc(N3CCNCC3)cc2)c1C [Example 339, (S)-4-((5-chloro-2-((5-cyanopyridin-3-yl)methoxy)-4-((2,2′-dimethyl-4″-(piperazin-1-yl)-[1,1′:3′,1″-terphenyl]-3-yl)methoxy)benzyl)amino)-3-hydroxybutanoic acid]	5.65	8.88

Second part, the compound after the results:

pEC50 (PD-1/PD-L1 interaction)	pIC50 (PD-1/PD-L1)	Compound
6.15	9.83	COc1cc(OCc2cccc(-c3cccc(COc4cc(OCc5cncc(C#N)c5)c(CNC[C@@H](O)CC(=O)O)cc4Cl)c3C)c2C)c(Cl)cc1CNCC(=O)NS(C)(=O)=O [Example 355, (S)-4-((5-chloro-4-((3′-((2-chloro-5-methoxy-4-(((2-(methylsulfonamido)-2-oxoethyl)amino)methyl)phenoxy)methyl)-2,2′-dimethyl-[1,1′-biphenyl]-3-yl)methoxy)-2-((5-cyanopyridin-3-yl)methoxy)benzyl)amino)-3-hydroxybutanoic acid]
5.55	8.63	Cc1c(COc2cc(OCc3cncc(C#N)c3)c(CN(C)C)cc2Cl)cccc1-c1cccc(-c2ccc(CN(C)C)s2)c1C [Example 366, 5-((4-chloro-2-((dimethylamino)methyl)-5-((3′-(5-((dimethylamino)methyl)thiophen-2-yl)-2,2′-dimethyl-[1,1′-biphenyl]-3-yl)methoxy)phenoxy)methyl)nicotinonitrile]
6.11	9.46	Cc1c(COc2cc(OCc3cncc(C#N)c3)c(CN[C@@](C)(CO)C(=O)O)cc2Cl)cccc1-c1cccc(-c2ccc3c(c2)OCC3N(C)C)c1C (stereo partly drawn) [Example 376, (2S)-2-((5-chloro-2-((5-cyanopyridin-3-yl)methoxy)-4-((3′-(3-(dimethylamino)-2,3-dihydrobenzofuran-6-yl)-2,2′-dimethyl-[1,1′-biphenyl]-3-yl)methoxy)benzyl)amino)-3-hydroxy-2-methylpropanoic acid]
6.72	9.90	Cc1c(COc2cc(OCc3cncc(C#N)c3)c(CN[C@@](C)(CO)C(=O)O)cc2Cl)cccc1-c1cccc(-c2ccc3c(c2)CC[C@H]3N(C)C)c1C [Example 378, (S)-2-((5-chloro-2-((5-cyanopyridin-3-yl)methoxy)-4-((3′-((R)-1-(dimethylamino)-2,3-dihydro-1H-inden-5-yl)-2,2′-dimethyl-[1,1′-biphenyl]-3-yl)methoxy)benzyl)amino)-3-hydroxy-2-methylpropanoic acid]
7.08	10.29	Cc1c(COc2nc(OCc3cncc(C#N)c3)c(CNC[C@@H](O)CC(=O)O)cc2Br)cccc1-c1cccc(-c2ccc(OCCNC[C@@H](O)CC(=O)O)cc2)c1C [Example 385, (S)-4-((2-((3″-(((3-bromo-5-((((S)-3-carboxy-2-hydroxypropyl)amino)methyl)-6-((5-cyanopyridin-3-yl)methoxy)pyridin-2-yl)oxy)methyl)-2′,2″-dimethyl-[1,1′:3′,1″-terphenyl]-4-yl)oxy)ethyl)amino)-3-hydroxybutanoic acid]
6.06	9.52	Cc1c(COc2cc(OCc3cncc(C#N)c3)c(CNC[C@@H](O)CC(=O)O)cc2Cl)cccc1-c1cccc(-n2cc(CN)nn2)c1C [Example 386, (S)-4-((4-((3′-(4-(aminomethyl)-1H-1,2,3-triazol-1-yl)-2,2′-dimethyl-[1,1′-biphenyl]-3-yl)methoxy)-5-chloro-2-((5-cyanopyridin-3-yl)methoxy)benzyl)amino)-3-hydroxybutanoic acid]
6.44	10.29	Cc1c(COc2cc(OCc3cncc(C#N)c3)c(CNC[C@@H](O)CC(=O)O)cc2Cl)cccc1-c1cccc(-c2cn(CCCNC[C@@H](O)CC(=O)O)nn2)c1C [Example 387, (S)-4-((3-(4-(3′-((4-((((S)-3-carboxy-2-hydroxypropyl)amino)methyl)-2-chloro-5-((5-cyanopyridin-3-yl)methoxy)phenoxy)methyl)-2,2′-dimethyl-[1,1′-biphenyl]-3-yl)-1H-1,2,3-triazol-1-yl)propyl)amino)-3-hydroxybutanoic acid]
6.15	10.19	Cc1c(COc2cc(OCc3cncc(C#N)c3)c(CNC[C@@H](O)CC(=O)O)cc2Cl)cccc1-c1cccc(-c2ccn3cc(CNC[C@@H](O)CC(=O)O)nc3c2)c1C [Example 397, (S)-4-(((7-(3′-((4-((((S)-3-carboxy-2-hydroxypropyl)amino)methyl)-2-chloro-5-((5-cyanopyridin-3-yl)methoxy)phenoxy)methyl)-2,2′-dimethyl-[1,1′-biphenyl]-3-yl)imidazo[1,2-a]pyridin-2-yl)methyl)amino)-3-hydroxybutanoic acid]
6.95	9.84	COc1cc(OCc2cccc(-c3cccc(COc4nc(OC)c(CNC5(C(=O)O)CCC5)cc4Cl)c3C)c2C)c(Cl)cc1CNC1(C(=O)O)CCC1 [Example 486]

— patent publication US12590062B2, “PD-1/PD-L1 inhibitors” (Gilead Sciences, Inc., priority 2017, dated 2026)
